Tests used:
[1] = test system: serum calcium level; assay: Decrease of the serum calcium level after administration of calcitonin suppositories to rats; type: in vivo; conditions: 0.7 u/kg intramuscularly administered
Description: (§1) (a) About 14 g of each of the absorption aids shown in Table 1 was added to 186 g of cacao butter, and they were well mixed by a grinder. Salmon caltintonin or [Asu^1,7 ]-eel calcitonin was added gradually and mixed to form a homogeneous composition. The composition was slightly heated to make it flowable, and about 80 mg of it was cast into a suppository container made for rats, and allowed to solidify by cooling to obtain a rat suppository having a diameter of about 3 mm and a length of about 6 mm. The suppository contained 0.7 MRC units of calcitonin.
(§2) The suppository was administered to the rectum of each of […] male rats (body weight about 200 g) and the concentration of calcium in the serum was measured 1, 2, 3, and 5 hours later to examine the absorbabillity of calcitonin from the rectum. The calcium level in the serum was measured by using a calcium level measuring kit of Yatoron Co., and five rats were used for each blood withdrawal. The results are shown in Table 1 as the decrease (%) of the serum calcium level from that before administration of the calcitonin-containing suppository.
Furthermore, [Aus^1,7 ]-eel calcitonin was intramuscularly injected to rats, and the decrease in serum calcium level was also examined.

[2] = test system: serum calcium level; assay: Effect of the amount of the absorption aid on the decrease of serum calcium level (calcitonin suppositories, rats); type: in vivo; conditions: intrarectal, SD male rats, one hour
Description: as §1, §2
(b) Suppositories containing 0.7 MRC unit of [Aus^1.7 ]-eel calcitonin per 80 mg were prepared in the same way as in (a) above by including each of the absorption aids shown in Table 2 in the amounts indicated. Each of the suppositories was intrarectally administered to SD male rats in the same way as in (a) above, and the decrease (%) of the serum calcium level was measured one hour after the administration.

[3] = test system: mucous membrane of the eyes (cornea, iris, conjunctiva); assay: Draize eye irritation test of absorption aids in rabbits; conditions: for Primary irritation scores on the eyes: Conjunctiva / Primary irritation scores on the eyes: Cornea / Primary irritation scores on the eyes: Iris / Primary irritation scores on the eyes: Total: 2.4 w/v % soln
Description: Nothing was applied to the other eye. Thus, irritation of the absorption aid to the mucous membrane of the eyes were examined, and scores were calculated in accordance with the Draize's eye irritation evaluating method [Association of Foods, Drugs and Cosmetics" (1957)].

[4] = test system: blood glucose level; assay: Decrease in blood glucose level after administration of insulin suppositories to rabbits; type: in vivo; conditions: 0.32 u/kg intramuscularly administered
Description: 500 mg of the dispersion was filled into a gelatin capsule for suppositories to form a gelatin capsule suppository. One capsule contained 9.6 units of insulin. In the same manner as above, insulin suppositories were prepared using the other absorption aids shown in Table 4 instead of ascorbic acid. The content (units) of insulin and the amounts of the absorption aids and the base (fractionated coconut oil) were as shown in Table 4. […] Each time, 0.5 ml of the blood was withdrawn from the ear vein. The glucose level of the blood was measured by the glucose oxidase method. Table 4 summarizes the decrease (%) of the blood glucose level from that before the administration.

Compound: [Asu^1,7 ]-eel calcitonin [[Asu^1.7]eel calcitonin]
- Decrease (%) in serum calcium level from that before administration ([1]; after 1 hour): 26.0%
- Decrease (%) in serum calcium level from that before administration ([1]; after 2 hours): 30.5%
- Decrease (%) in serum calcium level from that before administration ([1]; after 3 hours): 17.5%
- Decrease (%) in serum calcium level from that before administration ([1]; after 5 hours): 2.1%

Compound: O=C1O[C@H]([C@@H](O)CO)C(O)=C1O [Ascorbic acid]
- Decrease of the serum calcium level (%) ([2]; absorption aid 0.8% of suppository with 0.7 MRC unit [Aus^1.7]-eel calcitonin per 80 mg): 16.0%
- Decrease of the serum calcium level (%) ([2]; absorption aid 2.4% of suppository with 0.7 MRC unit [Aus^1.7]-eel calcitonin per 80 mg): 22.3%
- Decrease of the serum calcium level (%) ([2]; absorption aid 7.0% of suppository with 0.7 MRC unit [Aus^1.7]-eel calcitonin per 80 mg): 33.1%
- Decrease of the serum calcium level (%) ([2]; absorption aid 15.0% of suppository with 0.7 MRC unit [Aus^1.7]-eel calcitonin per 80 mg): 35.1%
- Primary irritation scores on the eyes: Conjunctiva ([3]; 1 hours after application): 3.3
- Primary irritation scores on the eyes: Cornea ([3]; 1 hours after application): 0
- Primary irritation scores on the eyes: Iris ([3]; 1 hours after application): 0
- Primary irritation scores on the eyes: Total ([3]; 1 hours after application): 3.3
- Primary irritation scores on the eyes: Conjunctiva ([3]; 3 hours after application): 1.3
- Primary irritation scores on the eyes: Cornea ([3]; 3 hours after application): 0
- Primary irritation scores on the eyes: Iris ([3]; 3 hours after application): 0
- Primary irritation scores on the eyes: Total ([3]; 3 hours after application): 1.3
- Primary irritation scores on the eyes: Conjunctiva ([3]; 6 hours after application): 1.3
- Primary irritation scores on the eyes: Cornea ([3]; 6 hours after application): 0
- Primary irritation scores on the eyes: Iris ([3]; 6 hours after application): 0
- Primary irritation scores on the eyes: Total ([3]; 6 hours after application): 1.3
- Primary irritation scores on the eyes: Conjunctiva ([3]; 24 hours after application): 0
- Primary irritation scores on the eyes: Cornea ([3]; 24 hours after application): 0
- Primary irritation scores on the eyes: Iris ([3]; 24 hours after application): 0
- Primary irritation scores on the eyes: Total ([3]; 24 hours after application): 0
- Primary irritation scores on the eyes: Conjunctiva ([3]; 48 hours after application): 0
- Primary irritation scores on the eyes: Cornea ([3]; 48 hours after application): 0
- Primary irritation scores on the eyes: Iris ([3]; 48 hours after application): 0
- Primary irritation scores on the eyes: Total ([3]; 48 hours after application): 0
- Primary irritation scores on the eyes: Conjunctiva ([3]; 72 hours after application): 0
- Primary irritation scores on the eyes: Cornea ([3]; 72 hours after application): 0
- Primary irritation scores on the eyes: Iris ([3]; 72 hours after application): 0
- Primary irritation scores on the eyes: Total ([3]; 72 hours after application): 0
- Primary irritation scores on the eyes: Conjunctiva ([3]; 96 hours after application): 0
- Primary irritation scores on the eyes: Cornea ([3]; 96 hours after application): 0
- Primary irritation scores on the eyes: Iris ([3]; 96 hours after application): 0
- Primary irritation scores on the eyes: Total ([3]; 96 hours after application): 0
- Primary irritation scores on the eyes: Conjunctiva ([3]; 168 hours after application): 0
- Primary irritation scores on the eyes: Cornea ([3]; 168 hours after application): 0
- Primary irritation scores on the eyes: Iris ([3]; 168 hours after application): 0
- Primary irritation scores on the eyes: Total ([3]; 168 hours after application): 0
- irritation to the mucous membrane of the eyes (in words) ([3]; aqueous solution applied dropwise to rabbit eye, Draize evaluation): almost no irritation

Compound: Insulin: porcine insulin, intramuscularly administered as comparison
- Decrease (%) in blood glucose level from that before administration ([4]; 30 minutes): 13.7%
- Decrease (%) in blood glucose level from that before administration ([4]; 1 hour): 32.6%
- Decrease (%) in blood glucose level from that before administration ([4]; 2 hours): 36.2%
- Decrease (%) in blood glucose level from that before administration ([4]; 3 hours): 15.2%

— US4434159A, “Pharmaceutical composition for intrarectal administration, and suppository prepared therefrom” (Teijin Limited, priority 1980, dated 1984)
